What was measured:
Type in all cases: in vivo
PESGL = assay: field trial, herbicidal activity against PESGL; settings: 2 to 3 repetitions, highest efficacy of three assessment days, g of a.i./ha: Ex. A.5 20, Glufosinate 400, combination 20 + 400
Protocol: (§1) The reported results originate from field trials carried out in 2 to 3 repetitions. The weed grasses or crops are sown. The activities are assessed on three days; what is reported are the highest efficacies.

TRZAS = assay: field trial, herbicidal activity against TRZAS; settings: 2 to 3 repetitions, highest efficacy of three assessment days, g of a.i./ha: Ex. A.5 20, Glufosinate 400, combination 20 + 400
Protocol: as §1

ALOMY = assay: field trial, herbicidal activity against ALOMY; settings: 2 to 3 repetitions, highest efficacy of three assessment days, g of a.i./ha: Ex. A.1 20, Metazachlor 1000, combination 20 + 1000
Protocol: as §1

AGGRE = assay: field trial, herbicidal activity against AGGRE; settings: 2 to 3 repetitions, highest efficacy of three assessment days, g of a.i./ha: Ex. A.1 20, Metazachlor 1000, combination 20 + 1000
Protocol: as §1

BROSTE = assay: field trial, herbicidal activity against BROSTE; settings: 2 to 3 repetitions, highest efficacy of three assessment days, g of a.i./ha: Ex. A.1 20, Metazachlor 1000, combination 20 + 1000
Protocol: as §1

| SMILES | % Activity PESGL (PESGL) | % Activity TRZAS (TRZAS) | % Activity ALOMY (ALOMY) | % Activity AGGRE (AGGRE) | % Activity BROSTE (BROSTE) |
| --- | --- | --- | --- | --- | --- |
| CP(=O)(O)CCC(N)C(=O)O (racemic) [Glufosinate (B4.2), 4-[hydroxy(methyl)phosphinoyl]-DL-homoalanine] | 20% | 20% |  |  |  |
| CCc1cc(Cl)cc(OC)c1C1=C(O)C2(CCC(OC)CC2)NC1=O (stereo not shown) [Ex. A.1] |  |  | 42% | 60% | 35% |
| CCOC(=O)OC1=C(c2c(CC)cc(Cl)cc2OC)C(=O)NC12CCC(OC)CC2 (stereo not shown) [Ex. A.5] | 70% | 69% |  |  |  |
| Cc1cccc(C)c1N(Cn1cccn1)C(=O)CCl [Metazachlor (B 3.20), 2-chloro-N-(2,6-dimethylphenyl)-N-(1H-pyrazol-1-ylmethyl)acetamide] |  |  | 28% | 10% | 45% |

Source: US20080167188A1, “Herbicide Combinations Comprising Special Ketoenoles” (priority 2004, published 2008)
